Assay results reported in ChEMBL document CHEMBL3430912, “GSK Tres Cantos Anti-Kinetoplastid Screening (TCAKS) Data”.

How the values were obtained:
[1] = system: Leishmania donovani; assay: GSK_TCAKS: pIC50 Leishmania donovani viability assay using fluorescence intensity. Assay plates (1536-well) were prepared by adding 30nL per well of compound. For single shot assay, the final compound concentration was 5uM. […] Briefly, eGFP LdBOB axenic amastigotes were harvested, fixed and counted in a CASY cell counter (Roche-Applied Science). A final concentration of 1.5 * 10^5 cells per well were prepared in amastigote media containing 500 U/mL penicillin/streptomycin (Invitrogen) and 6uL was dispensed to each experimental well using a Multidrop Combi dispenser (Thermo Scientific). 6uL of assay media was dispensed to control columns used as reference for 100% compound response. Following incubation for 72 h at 37C, 5% CO2, 2 uL of resazurin was added to each well at a final concentration of 0.5 mM in phosphate buffered saline (PBS) with IGEPAL (Sigma-Aldrich), 0.05% (v/v).; format: functional, organism-based
[2] = system: NIH3T3; assay: GSK_TCAKS: pIC50 NIH 3T3 cell line viability assay using luminiscence. Tissue culture surface treated assay plates (1536-well) were used. […] The 100% cells survival control was determined exposing the host-cells to a 0.5% DMSO concentration, whereas the 100% toxicity control was achieved by seeding the cells in presence of Amphotericin B at 50uM. Plates were incubated for four days at 37C, 5% CO2. The assay readout was developed by addition of 5uL of CellTiter-Glo Reagent following the manufacturer's instructions. Luminiscence was measured using a ViewLux.; format: functional, cell-based; settings: Mus musculus, NIH3T3, 96 h
[3] = biological target: Sterol 14-alpha demethylase (Trypanosoma cruzi (strain CL Brener), UniProt Q7Z1V1); assay: GSK_TCAKS: pIC50 CYP51 from Trypanosoma cruzi.; format: functional
[4] = GSK_TCAKS: pIC50 HepG2 human cell line viability assay using luminiscence. […] Seeding density was checked to ensure that new mono-layers were not more than 50% confluent at the time of harvesting. Cell suspension was added to 500 mL of the same medium at a final density of 1.2 * 10^5 cells/mL. This cell suspension was dispensed (25 uL, 3000 cells per well) into 384-well clear-bottom plates using a Multidrop Combi dispenser. Prior to addition of the cell suspension, the screening compounds (250 nL) were pre-dispensed into the plates with an Echo liquid handler. Plates were incubated for 48 h at 37C, 5% CO2. After incubation, plates equilibrated at room temperature for 30 min before proceeding to develop the luminescent signal. The signal developer, CellTiter-Glo Reagent, was allowed to equilibrate at room temperature for 30 min and added to the plates (25uL per well) using a Multidrop Combi dispenser. Plates were left for 10 min at room temperature for stabilization and then read using a ViewLux.; format: toxicity, cell-based
[5] = system: Leishmania donovani; assay: GSK_TCAKS: pIC50 Leishmania donovani Imaging: THP-1 Host Macrophages. Assay plates (384-well) were prepared by adding 250nL of compound to each well. For single shot assay, the final compound concentration was 5 uM. […] Automated image analysis was performed with a script developed on Acapella High Content Imaging and Analysis Software (PerkinElmer). Output: THP-1 cell count were reported for each well.; format: functional, organism-based, Homo sapiens
[6] = system: Trypanosoma cruzi; assay: (§1) GSK_TCAKS: pIC50 Trypanosoma cruzi Imaging: Infected Cells. […] Cells were then washed once with PBS before infection. T. cruzi trypomastigotes, collected at days 5 to 8 after infection from LLC-MK2 parasite infected cultures, were allowed to swim out for 4h at 37C from a centrifuged pellet (2,500 rpm/10 min/room temperature). Trypomastigotes were then collected and counted in a CASY Cell Counter. Trypomastigotes, in supplemented DMEM, were added to H9c2 cultures in a multiplicity of infection of 1 and incubated for 18 h. Cells were washed once with PBS before incubation of the infected H9c2 monolayer with trypsin (Life-Technologies) to detach cells from the flask. Cells were counted in a CASY Cell Counter using a 150 um capillary and their density set at 5 * 10^4 cells per mL in supplemented assay DMEM. Infected H9c2 were dispensed into 384-well poly-lysine coated assay plates at 50uL per well using a Multidrop Combi dispenser. After seeding them, the plates were incubated at 37C, 5% CO2 for 72h. Cultures were then fixed and stained by addition of 50 uL of a solution containing 8% formaldehyde and 4 uM DRAQ5 DNA dye (BioStatus, UK) per well. […] Five images were collected per well for reliable statistical analysis. Automated image analysis was performed with a script developed on Acapella High Content Imaging and Analysis Software (PerkinElmer). Output: percentage of infected cells per well as a second infection marker.; format: functional, organism-based, Rattus norvegicus; settings: H9c2, 4 h
[7] = system: Trypanosoma cruzi; assay: as §1, with “H2C9” for “Trypanosoma cruzi”, “H9c2 Host Cardiomyocytes.” for “Infected Cells.”, “Number” for “percentage”, “H9c2 Host Cardiomyocytes nuclei to determine drug-related cytotoxicity.” for “infected cells per well as a second infection marker.”; format: functional, organism-based, Rattus norvegicus; settings: H9c2, 4 h
[8] = system: Trypanosoma brucei brucei; assay: GSK_TCAKS: pIC50 Trypanosoma brucei viability assay using luminiscence. Assay plates (1536-well) were prepared. T. brucei cultures were harvested and counted in a CASY cell counter. A parasite suspension was prepared at a final concentration of 5 * 10^4 cells/mL in complete HMI9 medium and 6uL was dispensed to all wells containing compounds using a Multidrop Combi dispenser. 6uL of HMI9 media with 0.4% DMSO were dispensed to control columns. Plates were incubated for 24 h at 37C, 5% CO2 then tempered for 10 min at room temperature. ATP content was quantified by adding 4 uL of CellTiter-Glo Reagent (Promega) according to the manufacturer's instructions. Luminescence was measured using a ViewLux.; format: functional, organism-based; settings: Lister 427, CASY
[9] = system: Trypanosoma cruzi; assay: GSK_TCAKS: pIC50 Trypanosoma cruzi viability assay using beta-GAL activity. This assay was run at single shot at 5uM compound concentration per well. The biological reagents consisted of NIH-3T3 host cells and trypomastigotes parasitic cells; both cell types were set to a 3.3 * 10^5 cells/mL dilution in assay DMEM by means of a CASY cell counter device using a 60um capillary. 6 uL of the mixture were dispensed per well (about 1 * 10^3 host-cells and 1 * 10^3 parasites) with a Multidrop Combi dispenser. […] In all wells, the percentage of DMSO never exceeded 0.5%. Plates incubated for four days at 37C, 5% CO2. The substrate used for the assay fluorescence intensity (FLINT) readout was resorufin-beta-D-galactopiranoside (Sigma-Aldrich) at 5uM per well. It was diluted in PBS supplemented with the soft detergent Igepal (Fluka).; format: functional, organism-based, Mus musculus; settings: Tulahuen, NIH3T3
[10] = system: Leishmania donovani; assay: GSK_TCAKS: pIC50 Leishmania donovani Imaging: Infected Macrophages. Assay plates (384-well) were prepared by adding 250nL of compound to each well. For single shot assay, the final compound concentration was 5 uM. […] Automated image analysis was performed with a script developed on Acapella High Content Imaging and Analysis Software (PerkinElmer). Output: Percent of infected macrophage cells were reported for each well.; format: functional, organism-based, Homo sapiens; settings: THP-1
[11] = system: Leishmania donovani; assay: GSK_TCAKS: pIC50 Leishmania donovani Imaging: Amastigotes/Macrophages. Assay plates (384-well) were prepared by adding 250nL of compound to each well. For single shot assay, the final compound concentration was 5 uM. […] Automated image analysis was performed with a script developed on Acapella High Content Imaging and Analysis Software (PerkinElmer). Output: Average number of amastigotes per macrophage cell were reported for each well.; format: functional, organism-based, Homo sapiens; settings: THP-1
[12] = system: Trypanosoma brucei brucei; assay: GSK_TCAKS: pIC50 Trypanosoma brucei viability assay using fluorescence intensity. Assay plates (1536-well) were prepared by dispensing 25nL of compound solution per well using an Echo acoustic dispenser (Labcyte).; format: functional, organism-based; settings: Lister 427, 2 h
[13] = system: Trypanosoma cruzi; assay: GSK_TCAKS: pIC50 Trypanosoma cruzi Imaging: Amastigotes/Cell. […] Cells were then washed once with PBS before infection. T. cruzi trypomastigotes, collected at days 5 to 8 after infection from LLC-MK2 parasite infected cultures, were allowed to swim out for 4h at 37C from a centrifuged pellet (2,500 rpm/10 min/room temperature). Trypomastigotes were then collected and counted in a CASY Cell Counter. Trypomastigotes, in supplemented DMEM, were added to H9c2 cultures in a multiplicity of infection of 1 and incubated for 18 h. Cells were washed once with PBS before incubation of the infected H9c2 monolayer with trypsin (Life-Technologies) to detach cells from the flask. Cells were counted in a CASY Cell Counter using a 150 um capillary and their density set at 5 * 10^4 cells per mL in supplemented assay DMEM. Infected H9c2 were dispensed into 384-well poly-lysine coated assay plates at 50uL per well using a Multidrop Combi dispenser. After seeding them, the plates were incubated at 37C, 5% CO2 for 72h. Cultures were then fixed and stained by addition of 50 uL of a solution containing 8% formaldehyde and 4 uM DRAQ5 DNA dye (BioStatus, UK) per well. […] Five images were collected per well for reliable statistical analysis. Automated image analysis was performed with a script developed on Acapella High Content Imaging and Analysis Software (PerkinElmer). Output: number of amastigotes per cell as infection level measurement.; format: functional, organism-based, Rattus norvegicus; settings: H9c2, 4 h

Chain of Sterol 14-alpha demethylase (Q7Z1V1 whole entry): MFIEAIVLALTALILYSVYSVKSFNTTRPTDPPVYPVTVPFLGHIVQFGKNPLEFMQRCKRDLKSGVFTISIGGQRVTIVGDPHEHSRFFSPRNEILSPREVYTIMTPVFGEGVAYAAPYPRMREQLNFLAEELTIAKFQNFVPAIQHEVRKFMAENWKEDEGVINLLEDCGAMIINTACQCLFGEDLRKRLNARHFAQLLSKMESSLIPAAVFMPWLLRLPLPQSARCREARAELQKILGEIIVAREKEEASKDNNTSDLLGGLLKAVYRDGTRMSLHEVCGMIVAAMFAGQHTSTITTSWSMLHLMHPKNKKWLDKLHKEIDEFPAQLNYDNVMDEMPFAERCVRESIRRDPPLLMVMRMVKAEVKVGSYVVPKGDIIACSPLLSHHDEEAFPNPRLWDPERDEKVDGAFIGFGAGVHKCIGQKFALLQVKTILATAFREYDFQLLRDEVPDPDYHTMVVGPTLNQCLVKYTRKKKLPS

SMILES	IC50 [1] [µM]	IC50 [2] [µM]	IC50 [3] [µM]	IC50 at 48 h [4] [µM]	IC50 [5] [µM]	IC50 [6] [µM]	IC50 [7] [µM]	IC50 [8] [µM]	IC50 [9] [µM]	IC50 [10] [µM]	IC50 [11] [µM]	IC50 [12] [µM]	IC50 [13] [µM]
CC1=NN(C(=O)CCn2cnc([N+](=O)[O-])n2)C(O)(C(F)(F)F)C1 (stereo not given)	> 50.1	> 50.1	> 100	> 100	> 50.1	6.31	> 50.1	> 39.8	2	> 50.1	> 50.1	> 39.8	1.26
COc1ccc(S(=O)(=O)Nc2ccccc2OC)cc1NC(=O)CCCc1c[nH]c2ccccc12	25.1	> 50.1	> 100	> 100	> 50.1	1.26	> 50.1	31.6	1.58	> 50.1	> 50.1	12.6	1
CC(C)c1cc(C(=O)N2CCCC(c3cc4ncccc4[nH]3)C2)on1 (stereo not given)	> 50.1	20	50.1	> 100	> 50.1	3.16	> 50.1	> 39.8	2	> 50.1	> 50.1	> 39.8	1
COc1ccc(-c2nc3ccncc3c(=O)n2CCOc2ccccc2)cc1	39.8	31.6	0.0398	> 100	> 50.1	0.398	> 50.1	31.6	0.631	> 50.1	> 50.1	25.1	0.398
c1ccc2c(CCOc3nccnc3-c3ccncc3)c[nH]c2c1	5.01	20	0.0631	> 100	20	0.158	> 50.1	39.8	0.141	> 50.1	20	31.6	0.158
COc1ccc(NS(=O)(=O)c2cc(NC(=O)Cc3ccc(C)cc3)ccc2N2CCOCC2)cc1	39.8	25.1	> 100	> 100	> 50.1	5.01	> 50.1	7.94	2	> 50.1	> 50.1	5.01	2.51
Cc1ccc2ccc(C(Nc3ccccn3)c3cccnc3)c(O)c2n1 (stereo not given)	0.398	10	0.0501	20	> 50.1	0.2	31.6	3.98	0.501	12.6	7.94	5.01	0.2
c1ccc(CCNCc2cncc3nc(-c4cnccn4)n(C4CCCCC4)c23)cc1	> 50.1	6.31	0.1	> 100	> 50.1	0.126	> 50.1	> 39.8	0.316	> 50.1	> 50.1	31.6	0.126
Cn1nc([N+](=O)[O-])nc1N1CCCCC1	> 50.1	> 50.1	> 100	> 100	> 50.1	12.6	> 50.1	> 39.8	1.26	> 50.1	> 50.1	> 39.8	1
O=C(NCc1ccc(-n2cccc2)cc1)c1nc(Cn2ccc([N+](=O)[O-])n2)no1	> 50.1	50.1	> 100	> 100	> 50.1	2.51	> 50.1	> 39.8	2.51	> 50.1	> 50.1	> 39.8	1.26
